≈ marks a conversion by molar mass, not a printed value. Where “and” joins values, the source holds several entries; their conditions need not be identical. Equal entries are not always repeated. Where two headings read alike, the source gives them in different places.
What was measured:
C. elegans [1] = assay: whole plant or invertebrate; conditions: for LC50: 6 days at 25° C.; for viability of trb mutant nematodes at concentrations where most or all wild-type nematodes were dead: tribendimidine: trb-1 to trb-4, 100 μg/ml and greater, levamisole: trb-1, trb-2, trb-4, 1000 μM or greater
Description: LC50 assays determine the inhibitory concentration at which 50% of the nematodes are dead under certain conditions as calculated using the PROBIT algorithm. LC50 assays start with wild-type (N2) L4 nematodes. To get L4 nematodes, synchronous L1-staged nematodes (as per developmental assay) were plated onto OP50-seeded ENG plates (see below) and put at 20° for 44 h. The now L4-staged larvae were then washed off with water, spun down at 1800 rpm for 40 seconds, re-suspended with SS Media, spun again, and re-suspended in special SS Media to a concentration of 4 nematodes/μl. The assay was set up in a 48-well microtiter plate. Each well contained: 5 μl L4 nematodes (˜20 total), 40 μl of OP50 bacteria as a food source (see below for preparation), 20 μl of tribendimidine (prepared as below), 5 μl of FUdR (8 mM stock; see below), and SS Medium for a total of 200 μl. Each well was set up in triplicate. The plates were wrapped in moist paper towels, placed in a covered plastic box, and incubated at 25° C. for 6 days. The plates were then removed from the incubator and the nematodes transferred with a glass pipette into the well of a spot glass. Each nematode was then scored for dead or alive as follows. Using a thin platinum wire, each nematode was touched to see if it moved within 10 seconds of being touched. If it moved, it was scored as alive. If not, the touch was repeated a second time. If it moved after the second touch, it was scored as alive. […] The number of alive and dead nematodes was tallied for each well. The data from triplicate wells were combined into a single data point. The experiment was repeated for a total of three times on three different days (so a total of 9 wells per data point).
A tribendimidine stock solution was prepared at 4 mg/ml at 1% DMSO in SS Media (final concentration in the well will be 0.1% DMSO). 1% DMSO in SS Media was used as a dilutant to set up serial dilutions. For example, tube 1 contained 160 μl of 4 mg/ml Trib in 1% DMSO. Tube 2 contained 80 μl of the solution in Tube 1, diluted with 80 μl 1% DMSO (1:1 dilution; tube 2). Tube 3 contained 80 μl of the solution from Tube 2, diluted with 80 microliters 1% DMSO, etc. . . .
The trb mutant nematodes were isolated in the forward genetic screen for tribendimidine resistance described above. The LC50 assay was performed as previously described. A levamisole stock solution (100 mM stock) was prepared in water. Dilutions (2-fold) were made in SS Media accordingly such that 20 μl aliquots were added per well to give rise to the desired concentration.

C. elegans [2] = assay: Visual assay on tribendimidine, levamisole or pyrantel plates; conditions: tribendimidine and levamisole plates 100 μg/ml, pyrantel 100 mM stock 1:50 in agar
Description: Tribendimidine plates: stock solution (4 mg/ml) in water was prepared and added into standard C. elegans NG agar media (2.5 ml/100 ml) to a final concentration of 100 μg/ml. The mixture was poured into 35 mm plates (4 ml/plate). The plates were stored up to one week at 4° C. The plates were spread with OP50, a laboratory strain of E. coli commonly used as a food source for C. elegans. Resistant=good health and motility; susceptible=contracted, pale color, move slowly.

C. elegans [3] = assay: Developmental assay on Cry14A dose response plates +/- levamisole; format: in vivo, Caenorhabditis elegans; conditions: N2 wild-type, levamisole 0.75 μg/ml
Description: Similar experiments with a strain that produces Cry14A, alone and in combination with levamisole were performed. […] The Bt strain used in these experiments expressed Cry14A and two insecticidal Cry proteins (Cry34A and Cry35A) that are not expected to affect nematodes. […] To confirm this conclusion, an independent test of synergy between levamisole and Cry14A was carried out. In these experiments, N2 wild-type worms were plated onto Cry14A plates+/−levamisole.

wild-type C. elegans = format: in vivo, Caenorhabditis elegans
C. elegans [4] = assay: whole plant or invertebrate; format: in vivo, Caenorhabditis elegans; conditions: for IC50: Caenorhabditis elegans, 60 h
C. elegans [5] = assay: Brood size assay; format: in vivo, Caenorhabditis elegans; conditions: bre-5 mutant vs wild-type, 200 μg/ml tribendimidine, P<0.01
Description: L4 staged worms were used. One worm was picked up with an eyelash pick and placed in SS Media in a 48-well plate. […] The total volume was 200 μl. Each drug concentration was repeated in triplicate. The plates were incubated for 64 h at 25° C. The progeny were then transferred out of the well with a pipette onto an empty NG agar plate for counting. The experiment was repeated a total of three times.

[6] = Caenorhabditis elegans, 144 h, bre-2 mutant (Cry5B-resistant)
[7] = Caenorhabditis elegans, 144 h, bre-5 (ye17) mutant (Cry5B-resistant)
[8] = Caenorhabditis elegans, 144 h, wild-type (N2), L4 nematodes
[9] = trb-1, trb-2, trb-3, trb-4 mutants
[10] = combination of Cry5B and nAChR agonist, 1:1 ratio (μg/ml)
[11] = combination of Cry6A and levamisole
[12] = combination of Cry21A and levamisole, 3 days at 20° C.
[13] = combination of levamisole and Bt strain producing Cry14A (also Cry34A, Cry35A)

SMILES	LC50 (C. elegans [1]; [6])	LC50 (C. elegans [1]; [7])	LC50 (C. elegans [1]; [8])	viability of trb mutant nematodes at concentrations where most or all wild-type nematodes were dead (C. elegans [1])	LC50 (C. elegans [1]; wild-type (N2), L4 nematodes)	appearance of nematodes on drug plates (C. elegans [2]; [9])	appearance of nematodes on drug plates (C. elegans [2]; wild-type)	synergism factor (CI value) at ED75 (wild-type C. elegans; [10])	synergism factor (CI value) at ED90 (wild-type C. elegans; [10])	synergism factor (CI value) at ED95 (wild-type C. elegans; [10])	also measured
c1ccc([C@H]2CN3CCSC3=N2)cc1 [Levamisole]	1.16 µg/mL (≈ 5.68 µM)	9.99 µg/mL (≈ 48.9 µM)	19.6 µg/mL (≈ 96 µM)	mostly or all alive	11.712 µg/mL (≈ 57.3 µM)	resistant	sick	0.29	0.22	0.19	% alive (C. elegans [1]; trb-3(ye494) nematodes at 1 mM (1000 μM) levamisole): > 40%; effect of levamisole alone on worm development (C. elegans [3]): does not inhibit worm development; synergism factor (CI value) at ED75 (wild-type C. elegans; [11]): 0.96; synergism factor (CI value) at ED90 (wild-type C. elegans; [11]): 0.86; synergism factor (CI value) at ED95 (wild-type C. elegans; [11]): 0.82; synergism factor (CI value) at ED75 (wild-type C. elegans; [12]): 0.52; synergism factor (CI value) at ED90 (wild-type C. elegans; [12]): 0.42; synergism factor (CI value) at ED95 (wild-type C. elegans; [12]): 0.37; synergism factor (CI value) at ED75 (wild-type C. elegans; [13]): 0.60; synergism factor (CI value) at ED90 (wild-type C. elegans; [13]): 0.50; synergism factor (CI value) at ED95 (wild-type C. elegans; [13]): 0.44
CN1CCCN=C1/C=C/c1cccs1 [Pyrantel]	10.9 µg/mL (≈ 52.7 µM)	114 µg/mL (≈ 553 µM)	502 µg/mL (≈ 2430 µM)	–	594.956 µg/mL (≈ 2880 µM)	resistant	sick	0.74	0.73	0.72	–
C/C(=N\c1ccc(/N=C/c2ccc(/C=N/c3ccc(/N=C(\C)N(C)C)cc3)cc2)cc1)N(C)C [Tribendimidine]	7.27 µg/mL (≈ 16.1 µM)	12.3 µg/mL (≈ 27.2 µM)	54.4 µg/mL (≈ 120 µM)	mostly or all alive	58.372 µg/mL and 57.38 µg/mL	resistant	sick	0.28	0.19	0.14	response of levamisole-resistant mutants in LC50 assay (C. elegans [1]; mutants in 11 levamisole resistance genes (lev-1, lev-8, lev-9, lev-10, lev-11, unc-22, unc-29, unc-38, unc-50, unc-63, unc-74), high concentrations): resistant to tribendimidine; IC50 (C. elegans [4]; read-out: IC50 (inhibitory concentration at which 50% of the larvae are unable to complete development), wild-type (N2), L1 larvae, 60 h at 20° C.): 18.4 µg/mL (≈ 40.6 µM); IC50 (C. elegans [4]; read-out: IC50 (larval development), bre-5 (ye17) mutant (Cry5B-resistant), 60 h at 20° C.): 13.2 µg/mL (≈ 29.1 µM); IC50 (inhibitory concentration at which 50% of the larvae are unable to complete development) (C. elegans [4]; wild-type (N2), L1 larvae, 60 h at 20° C.): 14.718 µg/mL; brood size, mutant relative to wild-type (C. elegans [5]): reduced significantly
